Assay results taken from the NIST ThermoML archive (doi:10.1016/j.jct.2019.02.012).

Assay: mn = molality of the nth substance listed, in mol/kg
Conditions: 100 kPa, Liquid, Pycnometric method

O=C(O)[C@@H]1CCCN1 [L-proline] + O
mass density [kg/m3]
Conditions | 298.15 K | 303.15 K | 308.15 K | 313.15 K | 318.15 K
m1 = 0.025 | 997.86 | 996.45 | 994.82 | 992.99 | 991.02
m1 = 0.05 | 998.65 | 997.24 | 995.6 | 993.77 | 991.79
m1 = 0.075 | 999.43 | 998.01 | 996.37 | 994.53 | 992.55
m1 = 0.1 | 1000.2 | 998.77 | 997.12 | 995.28 | 993.29
m1 = 0.125 | 1000.96 | 999.52 | 997.86 | 996.01 | 994.02

CN(C)C(=N)NC(=N)N.Cl [N,N-dimethylimidodicarbonimidic diamide hydrochloride] + O
mass density [kg/m3]
Conditions | 298.15 K | 303.15 K | 308.15 K | 313.15 K | 318.15 K
m1 = 0.05 | 998.89 | 997.46 | 995.83 | 993.99 | 992.01
m1 = 0.1 | 1000.77 | 999.32 | 997.67 | 995.82 | 993.83
m1 = 0.15 | 1002.66 | 1001.21 | 999.56 | 997.69 | 995.69
m1 = 0.2 | 1004.6 | 1003.12 | 1001.46 | 999.59 | 997.6
